39 compounds from ChEMBL document CHEMBL1759976, “Carbonic anhydrase inhibitors. Inhibition of the β-class enzymes from the fungal pathogens Candida albicans and Cryptococcus neoformans with branched aliphatic/aromatic carboxylates and their derivatives” (Bioorg Med Chem Lett, 2011) can be followed below.

A short description of assay [1]: Inhibition of Cryptococcus neoformans Can2 beta-carbonic anhydrase by stopped flow CO2 hydration assay.
Assay [2] is described as follows: Inhibition of Candida albicans Nce103 beta-carbonic anhydrase by stopped flow CO2 hydration assay.
The target of another assay is Carbonic anhydrase 1 (Homo sapiens, UniProt P00915). The assay is described as follows: Inhibition of human cytosolic carbonic anhydrase 1 by stopped flow CO2 hydration assay.
The target of another assay is Carbonic anhydrase 2 (Homo sapiens, UniProt P00918).

Chain of Carbonic anhydrase 1 (P00915 whole entry): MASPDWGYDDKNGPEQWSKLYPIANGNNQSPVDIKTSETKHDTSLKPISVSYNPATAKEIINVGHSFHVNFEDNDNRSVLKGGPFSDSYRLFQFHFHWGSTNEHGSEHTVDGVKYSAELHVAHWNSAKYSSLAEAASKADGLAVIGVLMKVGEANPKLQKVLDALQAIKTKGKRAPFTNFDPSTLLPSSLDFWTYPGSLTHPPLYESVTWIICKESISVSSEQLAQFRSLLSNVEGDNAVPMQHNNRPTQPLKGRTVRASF

For the compound `CCCCC(CC)C(N)=O` (centres undefined), the Ki in assay [1] amounted to 0.39 µM; in assay [2], 5.7 µM.
With `CCCC(C)C(=O)O` (centres undefined), the Ki at Carbonic anhydrase 1 was 310 µM; on Carbonic anhydrase 2, 113 µM; in assay [1], 10.2 µM; in assay [2], 10.4 µM.
As to `COc1ccc(C(=O)NN)cc1`, the Ki on Carbonic anhydrase 1 came to 7.84 µM; on Carbonic anhydrase 2 it was 5.75 µM; in assay [1] it was 0.087 µM; in assay [2] it was 0.81 µM.
As for `CCC(C)CC(=O)O` (centres undefined), the Ki on Carbonic anhydrase 1 came out at 104 µM; on Carbonic anhydrase 2, 281 µM; in assay [1], 34.9 µM; in assay [2], 11.1 µM.
As for `CC(C)CCC(=O)O`, affinity in assay [2] was put at a Ki of 2.14 µM.
Regarding `CCCCC(C)C(=O)O` (centres undefined), the Ki at Carbonic anhydrase 1 was 380 µM; at Carbonic anhydrase 2, 103 µM; in assay [1] it was 3.23 µM; in assay [2], 3.73 µM.
On to `CCC(C)CCC(=O)O` (centres undefined), for which the inhibition constant (Ki) on Carbonic anhydrase 1 turned out to be 420 µM; at Carbonic anhydrase 2, 112 µM; in assay [1], 0.8 µM; in assay [2], 1.25 µM.
For `CCCCC(CC)C(=O)O` (centres undefined) the same measures were 450 µM, 93 µM, 0.95 µM and 43.1 µM.
For `CCCCCC(C)C(=O)O` (centres undefined), the Ki worked out at 110 µM on Carbonic anhydrase 2, 39.3 µM in assay [1] and 11.7 µM in assay [2].
Take `CCCCC(CC)CCC(=O)O` (centres undefined): the inhibition constant (Ki) on Carbonic anhydrase 1 was 380 µM; in assay [1], 41.2 µM; in assay [2], 37.9 µM.
In the case of `CCCCCCC(CCCC)C(=O)O` (centres undefined), the Ki on Carbonic anhydrase 1 came out at 101 µM; in assay [2], 10.7 µM.
For the compound `O=C(O)c1ccc(F)cc1`, the Ki came out at 7.39 µM on Carbonic anhydrase 1, 3.34 µM on Carbonic anhydrase 2, 0.13 µM in assay [1] and 1.09 µM in assay [2].
On to `O=C(O)c1ccc(I)cc1`, for which the Ki in assay [1] was found to be 5.46 µM; in assay [2], 5.17 µM.
Take `O=C(O)c1ccc([N+](=O)[O-])cc1`: the inhibitory constant (Ki) worked out at 8.8 µM at Carbonic anhydrase 1, 8.56 µM on Carbonic anhydrase 2, 0.12 µM in assay [1] and 4.85 µM in assay [2].
`O=C(O)c1ccc(O)cc1`: the Ki amounted to 7.61 µM at Carbonic anhydrase 1, 0.0095 µM in assay [1] and 0.11 µM in assay [2].
For `COc1ccc(C(=O)O)cc1`, the inhibitory constant (Ki) on Carbonic anhydrase 1 was determined as 9.06 µM; at Carbonic anhydrase 2, 8.03 µM; in assay [1], 0.0099 µM; in assay [2], 0.15 µM.
Consider `Nc1cccc(C(=O)O)c1`, for which the inhibition constant (Ki) on Carbonic anhydrase 1 came to 8.79 µM; at Carbonic anhydrase 2, 8.63 µM; in assay [1], 3.06 µM; in assay [2], 3.4 µM.
Consider `N#Cc1ccc(C(=O)O)cc1`, for which the Ki came out at 0.14 µM in assay [1] and 4.47 µM in assay [2].
Consider `CC(=O)Nc1ccc(C(=O)[O-])cc1.[Na+]`, for which the inhibition constant Ki came out at 4.04 µM on Carbonic anhydrase 1, 7.28 µM at Carbonic anhydrase 2, 0.32 µM in assay [1] and 0.34 µM in assay [2].
In the case of `O=C(O)c1ccc(CCl)cc1`, the inhibition constant Ki in assay [1] is 3.65 µM; in assay [2], 4.71 µM.
On to `CN(C)c1ccc(C(=O)O)cc1`, for which the Ki on Carbonic anhydrase 1 was found to be 3.94 µM; on Carbonic anhydrase 2, 3.33 µM; in assay [1], 0.13 µM; in assay [2], 5.2 µM.
On the same counts, the results for `O=C(O)c1ccc(S(=O)(=O)N(Cl)Cl)cc1` are 3.88 µM, 1.96 µM, 0.12 µM and 4.97 µM.
As for `CCCCC(CC)C(=O)OC` (centres undefined), the inhibition constant Ki in assay [1] is 0.74 µM; in assay [2], 5.6 µM.
For `CCCCC(CC)C(=O)NO` (centres undefined) the same measures were 0.29 µM and 3.05 µM.
As to `CCCCC(CC)C(=O)NN` (centres undefined), the Ki in assay [1] was 0.23 µM; in assay [2] it was 4.56 µM.
For `COc1ccc(C(=O)NO)cc1` the same measures were 0.071 µM and 0.47 µM.
Take `COc1ccc(C(N)=O)cc1`: the Ki was 4.34 µM at Carbonic anhydrase 1, 2.18 µM at Carbonic anhydrase 2, 0.062 µM in assay [1] and 0.54 µM in assay [2].
For the compound `CCCCC(CC)C(=O)O` (centres undefined) [2-ETHYLHEXANOIC ACID], the figures for the Ki at Carbonic anhydrase 1 and on Carbonic anhydrase 2 were 450 µM and 93 µM, respectively.
Regarding `CC(=O)Nc1nnc(S(N)(=O)=O)s1` [ACETAZOLAMIDE], the Ki came out at 0.01 µM in assay [1] and 0.13 µM in assay [2].
For the compound `Nc1ccc(C(=O)O)cc1` [AMINOBENZOATE SODIUM], the Ki on Carbonic anhydrase 1 came to 8.4 µM; on Carbonic anhydrase 2 it was 8.13 µM; in assay [1] it was 0.12 µM; in assay [2] it was 2.95 µM.
For `COC(=O)c1ccc(OC)cc1` [METHYL 4-METHOXYBENZOATE], the values for the Ki in assay [1] and in assay [2] were 0.067 µM and 0.61 µM, respectively.
`CC(=O)[O-].[Na+]` [SODIUM ACETATE] yielded an inhibitory constant (Ki) on Carbonic anhydrase 1 of 10.8 µM.
Same read-out and setting: with `CCCC(=O)[O-].[Na+]` [SODIUM BUTYRATE] the figure was 511 µM; with `O=C[O-].[Na+]` [SODIUM FORMATE], 1040 µM.
For the compound `CC(C)C(=O)[O-].[Na+]` [SODIUM ISOBUTYRATE], the inhibitory constant (Ki) at Carbonic anhydrase 1 is 120 µM; at Carbonic anhydrase 2 it was 350 µM; in assay [1], 3.81 µM; in assay [2], 0.98 µM.
As for `CC(C)CC(=O)O` [SODIUM ISOVALERATE], the Ki is 300 µM on Carbonic anhydrase 1, 100 µM at Carbonic anhydrase 2, 0.91 µM in assay [1] and 0.95 µM in assay [2].
With `CCC(=O)[O-].[Na+]` [SODIUM PROPIONATE], at Carbonic anhydrase 1, the Ki came to 1010 µM.
The same measure, in the same setting: with `CCCCC(=O)[O-].[Na+]` [SODIUM VALERATE] the figure was 55.3 µM.
With `COc1ccc(C(=O)O)cc1` [p-ANISIC ACID], the figures for the Ki on Carbonic anhydrase 1 and on Carbonic anhydrase 2 were 9.06 µM and 8.03 µM, respectively.

The Ki is the dissociation constant of the complex between target and ligand, obtained from inhibition or displacement. Low values mean a stronger hold on the target, high ones a looser hold on the target.
